From BigSolDB 2.1

COc1ccc2c(c1)c(CC(=O)O)c(C)n2C(=O)c1ccc(Cl)cc1
solubility (mole fraction)
Conditions | 293.15 K | 298.15 K | 303.15 K | 308.15 K | 313.15 K
in 1,4-dioxane | 0.0249 | 0.029 | 0.0343 | 0.0416 | 0.0477
in water | 7.81e-07 | 9.32e-07 | 1.1e-06 | 1.27e-06 | 1.52e-06
